Experimental data reported in patent US20240091366A1, “NOVEL ACID-SENSITIVE APTAMER TRIPTOLIDE CONJUGATE AND APPLICATIONS” (priority 2022, published 2024).
Values joined by “and” are separate entries in the source; they are usually repeats but may differ in a detail not shown here. Equal entries are not always repeated.

Key:
[1] = test system: colon cancer cells HCT116; test: In vivo antitumor activity, colon cancer xenograft in nude mice; design: species or system mouse; Tumor weight: unit not given here; details: HCT116 model, once every 2 days, 8 doses
From the text: The following are the in vivo activity studies conducted in different tumor-bearing mice:
A PBS negative control group was set up.

[2] = test system: lung adenocarcinoma cell line A549; test: MTT assay, cell proliferation inhibition; assay type: cell-based; details: for cell proliferation inhibition rate: 48 h, samples 1-3
From the text: (§1) Material: aptamer triptolide conjugate (AS1411-TP). Triptolide (TP) was provided by Shanghai Yaji Biotechnology Co. Ltd; aptamer (AS1411) was obtained from Chengdu Pilot Drug Development Co. Ltd; trypsin, thiazolyl blue (MTT) (Biofroxx, Germany); dimethyl sulfoxide (DMSO) (MP Biomedicals, France); fetal bovine serum (FBS) (Newzerum, New Zealand); DMEM medium, RPMI1640 medium, Petri dishes, 96-well plates (Corning, USA); colon cancer cells HCT116, breast cancer cells MDA-MB-231, non-small-cell lung cancer cells A549, pancreatic cancer cells PANC-1, and hepatocellular carcinoma cells HepG2 were purchased from the Shanghai Cell Bank of the Chinese Academy of Sciences and preserved in the laboratory.
(§2) Take the tumor cells HCT116, MDA-MB-231, A549, PANC-1 and HepG2 cell lines from the liquid nitrogen tank, place them in a 37° C. water bath, wait for the frozen cells to melt into cell suspension, centrifuge the cells at 1000 r/min for 3 min, discard the supernatant, add 1 ml of fresh complete medium containing 10% fetal bovine serum and 1% double antibody to mix the cells, then add 5 ml of medium, gently and repeatedly blowing the cells with a pipette gun to make them mix well. Then add 5 ml of medium, blow the cells gently and repeatedly with a pipette gun to mix them well, and finally transfer the cell suspension to a […] and label the cell name, cell number, date of resuscitation and the operator's name, and place it in a cell culture incubator for cultivation. (HCT116, PANC-1 and HepG2 cell lines were cultured in DMEM medium, while MDA-MB-231 cell line and A549 cell line were cultured in RPMI1640 medium).
(§3) Take HCT116, MDA-MB-231, A549, PANC-1, HepG2 cells with good growth status, remove the medium, add 1 ml of sterile PBS to wash, add 1.5 ml of trypsin to digest the cells, about 2 min later the cells become round and fall off, add 1.5 ml of medium to terminate the digestion, transfer it to centrifugal tube, centrifuge at 1000 r/min for 3 min, discard the supernatant, add 1 ml of fresh medium to resuspend, then add fresh medium for 1:3 distribution to other culture dishes, and label the date of transmission and the number of generations. Place in the cell culture incubator for cultivation.
(§4) Take HCT116, MDA-MB-231, A549, PANC-1, HepG2 cells with good growth status, by the same operation as the cell passaging experiment, after cell resuspension, cell counting with hemocyte counting plate, with 2500 cells/well, plant in 96-well plate, after 24 h of cell culture, remove the original medium, add medium containing different concentrations of drugs and continue to cultivate for 48 hours. After 24 h of cell culture, the original medium was removed and the medium containing different concentrations of drugs was added to continue the culture for 48 hours. […] The above steps were repeated three times.

[3] = test system: colon cancer cell line HCT116; test: MTT assay, cell proliferation inhibition; assay type: cell-based; details: for cell proliferation inhibition rate: 48 h, samples 1-3
From the text: as §1, §2, §3, §4

[4] = test system: hepatocellular carcinoma cell line HepG2; test: MTT assay, cell proliferation inhibition; assay type: cell-based; details: for cell proliferation inhibition rate: 48 h, samples 1-3
From the text: as §1, §2, §3, §4

[5] = test system: pancreatic cancer cell line PANC-1; test: MTT assay, cell proliferation inhibition; assay type: cell-based; details: for cell proliferation inhibition rate: 48 h, samples 1-3
From the text: as §1, §2, §3, §4

[6] = test system: breast cancer cell line MDA-MB-231; test: MTT assay, cell proliferation inhibition; assay type: cell-based; details: for cell proliferation inhibition rate: 48 h, samples 1-3
From the text: as §1, §2, §3, §4

[7] = Body weight during administration, colon cancer model; details: HCT116 model, during 8 times of administration
Method: Female nude mice were reared for 6-7 weeks under standard environment, colon cancer cells HCT116 were suspended in serum-free medium, and each mouse was inoculated with 5*10^6 tumor cells. When the tumor volume reached 50-100 mm^3, the mice were randomly divided into 4 groups, and were injected with aptamer triptolide conjugate, triptolide, and aptamer by tail vein, respectively, 12 mice in each group. A PBS negative control group was set up. […] The drugs were administered once every 2 days for 8 consecutive doses, and the experiment was ended 24 hours after the last dose. At the end of the experiment, the animals were executed by breaking the cervical vertebrae, and the tumors were stripped and weighed to calculate the tumor growth inhibition rate of the drug. The t-test was used to compare the tumor weight, tumor volume, RTV and other indexes of the animals in each group.

## AS1411: nucleolin aptamer, single-stranded oligonucleotide, SEQ ID NO: 1 GGTGGTGGTGGTTGTGGTGGTGGTGG
[1]; 10 μM 100 μL tail vein
  RTV: 33.13 ± 0.51
  T/C (%): 93.19%
  Tumor inhibition rate (%): 6.45%
  Tumor weight: 2.92 ± 0.33
[1]; 30 μM 100 μL tail vein
  RTV: 28.56 ± 0.23
  T/C (%): 80.34%
  Tumor inhibition rate (%): 12.91%
  Tumor weight: 2.74 ± 0.15
[1]; 50 μM 100 μL tail vein
  RTV: 26.32 ± 0.15
  T/C (%): 74.04%
  Tumor inhibition rate (%): 16.12%
  Tumor weight: 2.66 ± 0.14
[2]; A549, 12.5 nM, 0.0125 µM
  cell proliferation inhibition rate: 5.5843 and 7.7330 and 4.4586
[2]; A549, 25.0 nM, 0.025 µM
  cell proliferation inhibition rate: 6.8129 and 6.6467 and 6.1306
[2]; A549, 50.0 nM, 0.05 µM
  cell proliferation inhibition rate: 9.0069 and 8.0722 and 7.6624
[2]; A549, 100.0 nM, 0.1 µM
  cell proliferation inhibition rate: 11.4727 and 11.8492 and 10.6369
[2]; A549, 200.0 nM, 0.2 µM
  cell proliferation inhibition rate: 14.5704 and 11.4171 and 14.3285
[2]; A549, at the experimental concentration
  inhibitory effect on tumor cell: did not have any significant inhibitory effect
[3]; HCT116, 6.3 nM, 0.0063 µM
  cell proliferation inhibition rate: 2.9669 and 1.6683 and 3.1584
[3]; HCT116, 12.5 nM, 0.0125 µM
  cell proliferation inhibition rate: 4.1987 and 3.0229 and 2.5102
[3]; HCT116, 25.0 nM, 0.025 µM
  cell proliferation inhibition rate: 5.4987 and 6.2971 and 5.6986
[3]; HCT116, 50.0 nM, 0.05 µM
  cell proliferation inhibition rate: 6.5424 and 6.5952 and 5.0330
[3]; HCT116, 100.0 nM, 0.1 µM
  cell proliferation inhibition rate: 10.6504 and 12.1637 and 10.9076
[3]; HCT116, 200.0 nM, 0.2 µM
  cell proliferation inhibition rate: 16.9608 and 13.5881 and 14.2937
[3]; HCT116, at the experimental concentration
  inhibitory effect on tumor cell: did not have any significant inhibitory effect
[4]; HepG2, 3.1 nM, 0.0031 µM
  cell proliferation inhibition rate: 2.0417 and 2.2455 and 2.1946
[4]; HepG2, 12.5 nM, 0.0125 µM
  cell proliferation inhibition rate: 3.5280 and 2.4483 and 3.6148
[4]; HepG2, 25.0 nM, 0.025 µM
  cell proliferation inhibition rate: 4.1258 and 3.9268 and 4.1946
[4]; HepG2, 50.0 nM, 0.05 µM
  cell proliferation inhibition rate: 8.4300 and 6.9712 and 9.6253
[4]; HepG2, 100.0 nM, 0.1 µM
  cell proliferation inhibition rate: 7.2906 and 11.7328 and 8.7216
[4]; HepG2, 200.0 nM, 0.2 µM
  cell proliferation inhibition rate: 10.3764 and 15.8325 and 9.9457
[4]; HepG2, at the experimental concentration
  inhibitory effect on tumor cell: did not have any significant inhibitory effect
[5]; PANC-1, 12.5 nM, 0.0125 µM
  cell proliferation inhibition rate: 3.6656 and 3.5639 and 3.6148
[5]; PANC-1, 25.0 nM, 0.025 µM
  cell proliferation inhibition rate: 3.0417 and 4.2455 and 4.1946
[5]; PANC-1, 50.0 nM, 0.05 µM
  cell proliferation inhibition rate: 7.2954 and 7.9552 and 9.6253
[5]; PANC-1, 100.0 nM, 0.1 µM
  cell proliferation inhibition rate: 8.3147 and 7.1285 and 8.7216
[5]; PANC-1, 200.0 nM, 0.2 µM
  cell proliferation inhibition rate: 9.6236 and 10.2679 and 9.9457
[5]; PANC-1, at the experimental concentration
  inhibitory effect on tumor cell: did not have any significant inhibitory effect
[6]; MDA-MB-231, 3.1 nM, 0.0031 µM
  cell proliferation inhibition rate: 2.2910 and 2.1209 and 2.5159
[6]; MDA-MB-231, 6.3 nM, 0.0063 µM
  cell proliferation inhibition rate: 3.2333 and 4.9611 and 4.2994
[6]; MDA-MB-231, 25.0 nM, 0.025 µM
  cell proliferation inhibition rate: 5.5843 and 7.7330 and 4.4586
[6]; MDA-MB-231, 50.0 nM, 0.05 µM
  cell proliferation inhibition rate: 6.8129 and 6.6467 and 6.1306
[6]; MDA-MB-231, 100.0 nM, 0.1 µM
  cell proliferation inhibition rate: 9.0069 and 8.0722 and 8.6624
[6]; MDA-MB-231, 200.0 nM, 0.2 µM
  cell proliferation inhibition rate: 14.4727 and 11.8492 and 10.6369
[6]; MDA-MB-231, at the experimental concentration
  inhibitory effect on tumor cell: did not have any significant inhibitory effect
[7]
  body weights of mice: basically maintained in the tolerable range of animal toxicity and side-effects
